Assay results published in paper PMC12022980, “Rational Design of PROTAC Linkers Featuring Ferrocene as a Molecular Hinge to Enable Dynamic Conformational Changes” (Journal of the American Chemical Society, 2025).
Values after ≈ are worked out from the molar mass of the structure shown. Read-outs that look alike come from different tables or passages of the source.

How the values were obtained:
VHL = biological target: T1, VHL (Homo sapiens, UniProt P40337); assay: NanoBRET VHL target engagement, permeabilised-cell mode; assay type: cell-based; conditions: HEK293 transfected with VHL-NanoLuc, tracer 0.5 μM
T1 construct: host or cells: HEK293, transient transfection
T1 sequence (P40337 whole entry): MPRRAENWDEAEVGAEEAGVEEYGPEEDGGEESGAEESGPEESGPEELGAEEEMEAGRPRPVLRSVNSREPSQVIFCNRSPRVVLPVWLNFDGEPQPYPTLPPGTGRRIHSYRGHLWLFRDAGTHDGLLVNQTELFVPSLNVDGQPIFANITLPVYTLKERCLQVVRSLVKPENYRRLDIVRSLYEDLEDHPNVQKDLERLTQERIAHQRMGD
Excerpt: To this end, we assessed the PROTAC cellular permeability by evaluating VHL target engagement using the Promega NanoBRET TE Intracellular E3 Ligase.[62] Current PROTAC permeability assays use artificial systems like PAMPA and Caco-2, designed for small molecules but not always effective for PROTACs due to their low permeability, high molecular weight and assay caveats (i.e., unspecific binding and low recovery).[63],[64] The NanoBRET assay is a high-throughput method validated for measuring E3 ligase engagement in live and permeabilised cells. The assay allows to rank PROTAC intracellular availability through competitive probe displacement and offers a simple workflow for prioritising compounds based on properties associated with permeability. […] Specifically, in the live-cell mode, the assay measures the apparent cellular affinity, where the plasma membrane is intact and can impede the compound’s access to its target. In the permeabilised-cell mode, the barrier posed by the plasma membrane is removed and the intrinsic affinity of the compound for target is measured. […] The ratio of potencies between live-cell and permeabilised-cell modes, referred to as the relative-binding affinity (RBA) value increases as intracellular availability decreases and is thus a metric for assessing a PROTAC̀s cellular availability. […]

[1] = Kinetic solubility in phosphate buffer and FeSSIF; assay type: physicochemical; conditions: kinetic from iPrOH stock
Procedure: Solubility in Phosphate Buffer and Fed State Simulated Intestinal Fluid (FeSSIF) 8 µL of reference or test compound stock solution (10 mM in iPrOH) was added to 792 μL of 100 mM phosphate buffer (pH 7.4) or FeSSIF (pH 5.8). The resulting mixture was shaken for 1 h (1000 rpm) at room temperature and then centrifuged for 10 min (12 000 rpm) to remove the undissolved particles. The supernatant was collected and diluted 10 times and 100 times separately with 100 mM phosphate buffer or FeSSIF. Five microliters of the supernatant samples (no diluted, 10 times diluted, 100 times diluted) were mixed with 95 μL of acetonitrile (containing internal standard) separately before injecting into LC-MS/MS for analysis. […]

Plasma stability assay = assay type: in vitro ADME; conditions: mouse plasma; read-out: stability T1/2 in mouse plasma
Procedure: Frozen plasma was thawed at 37 °C and centrifuged at 3000 rpm for 8 min to remove clots, and the supernatant was used in the experiment. The pH of the plasma was recorded, and only the pH range between 7.4 and 8 was used. The plasma and compound solution were prewarmed to 37 °C. 10 µL of prewarmed testing compound or reference compound (procaine) solution (20 μM in 0.05 mM sodium phosphate buffer (pH 7.4) with 0.5% BSA) was mixed with 90 μL of plasma at different time points to allow for 5, 15, 30, 45, and 60 min of incubation time. For 0 min, the plasma was mixed with vehicle only. Acetonitrile was added to the compound and plasma mixture to quench the reaction, and the resulting mixture was centrifuged (5594g for 15 min). The

[2] = Mouse liver microsome stability; assay type: in vitro ADME; conditions: liver microsomes; for CLint scaled at 1 µM: pH 7.4; for half-life at 1 µM: pH 7.4, read-out: stability T1/2 in mouse microsome
Procedure: Mouse Liver Microsome Stability
Testing compound (1.5 μL) or reference compound (500 μM in 5% iPrOH and 95% acetonitrile) was mixed with 18.75 μL of 20 mg/mL liver microsome (Corning) and 479.75 μL of potassium phosphate buffer (0.1 M potassium phosphate buffer, 1 mM EDTA, pH 7.4). The reaction was started by mixing 30 μL of the above mixture (prewarmed to 37 °C) with 15 μL of 6 mM NADPH stock solution (prewarmed to 37 °C). After incubating for 5, 15, 30, or 45 min, 135 μL of acetonitrile containing internal standard was added to stop the reaction. For 0 min, the compound and microsome mixture were mixed with acetonitrile first before adding NADPH. After quenching, the reaction mixture was centrifuged, and the supernatant was taken and diluted for LC-MS

[3] = FeSSIF pH 5.8, read-out: kinetic solubility FeSSIF (pH 5.8)
[4] = phosphate buffer, aqueous buffer, PBS pH 7.4, read-out: kinetic solubility PBS (pH 7.4)

IC50 (VHL) [nM] | solubility kinetic at 1 h [1, 3] [µM] | solubility kinetic at 1 h [1, 4] [µM] | half-life at 2 µM (Plasma stability assay) [min] | CLint scaled at 1 µM [2] [mL/min/kg] | half-life at 1 µM [2] [min] | SMILES
300 | 59.5 (≈ 57 µg/mL) | 8.7 (≈ 8.34 µg/mL) | 33.4 | 5090 | 1.1 | Cc1ncsc1-c1ccc(CNC(=O)[C@@H]2C[C@@H](O)CN2C(=O)[C@@H](NC(=O)CCCCCOCCOCCCCCC(=O)Nc2cccc3c2C(=O)N(C2CCC(=O)NC2=O)C3=O)C(C)(C)C)cc1 (stereo partly drawn) [14a]
300 | 38.6 (≈ 45.5 µg/mL) | 58.2 (≈ 68.6 µg/mL) | 234 | 212 | 25.8 | Cc1ncsc1-c1ccc(CNC(=O)[C@@H]2C[C@@H](O)CN2C(=O)[C@@H](NC(=O)COCCOCCOCCOCCOCCOCC(=O)N[C@H](C(=O)N2C[C@H](O)C[C@H]2C(=O)NCc2ccc(-c3scnc3C)cc2)C(C)(C)C)C(C)(C)C)cc1 [CM11]
